Test results from patent US11028061B2, “Modulators of myocyte lipid accumulation and insulin resistance and methods of use thereof” (Sanford Burnham Prebys Medical Discovery Institute, priority 2015, dated 2021).

Key:
human skeletal myotubes = test: Glycogen synthesis assay in human skeletal myotubes; format: cell-based; details: 24 hours
Method: Human skeletal myotubes were incubated with or without SBI-477 and then treated with or without insulin (100 nM) for 30 minutes. Glycogen synthesis rates were then measured as described (Halse, et al., J Biol Chem. 1999; 274(2):776-780). Briefly, differentiated primary human skeletal myotubes were treated with SBI-477 as described in the glucose uptake assay. Following incubation with SBI-477, cells were serum starved in α-MEM for 1 hour. The medium was replaced with α-MEM supplemented with [14C]-D-glucose (1 μCi/mL) for three hours and then treated in the absence or presence of insulin (100 nM) for 30 minutes. After incubation, the cells were washed three times with ice-cold PBS and then lysed in 30% potassium hydroxide (KOH) containing 6 mg/mL glycogen. For glycogen precipitation, the samples were added to ice-cold 100% ethanol for 18 hours at 4° C. The samples were centrifuged at 8,500×g for 10 minutes at 4° C. and the supernatant was discarded. After one wash with 75% ethanol, the glycogen precipitate was dissolved in distilled water. [14C]-D-glucose incorporated to glycogen was counted by liquid scintillation analyzer (PerkinElmer) and normalized to total protein.

Akt = test: Western blot of Akt phosphorylation; format: cell-based, human; details: 24 hours
Method: FIGS. 3A, B, C, E and F show SBI-477 stimulation of glucose uptake and activates insulin signaling in the absence of insulin. Human skeletal myotubes were incubated with SBI-477 at the indicated concentration for 24 hours and then treated with or without insulin (100 nM) for 30 minutes. Glucose ([3H]-2-deoxyglucose, 2-DG) uptake (FIG. 3A) and glycogen synthesis rates (FIGS. 3B and 3C) were measured (n=5) as described in Methods. *p<0.05 vs. Vehicle, no insulin, †p<0.05 vs. Vehicle/insulin by two-way ANOVA with Tukey's post hoc test. (FIG. 3E) Western blot analysis of human myotubes treated with SBI-477 for 24 hours was performed to determine the effect on steps of the insulin signaling pathway using specific Akt and IRS-1 phosphorylation sites as endpoints. Insulin treatment (100 nM) for 30 minutes was used as positive control. (FIG. 3F) Quantitation of the western blot data in […] is shown (n=5). *p<0.05 or **p<0.01 vs. Vehicle by one-way ANOVA with Bonferroni post hoc test. The data represent mean±SD.
Cells were lysed in the RIPA buffer containing 1% NP-40, 5 mM Na4P2O7, 1 mM EDTA, 20 mM NaF, 2 mM Na3VO4, 1× cOmplete™ protease inhibitor (Roche) and 1 mM phenylmethylsulfonyl fluoride. […] Protein quantification was performed using FluorChemQ (Alpha Innotech) and normalized to […]-actin or total protein where indicated.

COc1ccc(-c2csc(NC(=O)c3ccc(OCC(=O)N4CCOCC4)c(OC)c3)n2)cc1 [Cpd. 7, 3-methoxy-N-(4-(4-methoxyphenyl)thiazol-2-yl)-4-(2-morpholino-2-oxoethoxy)benzamide]
Glycogen synthesis rates (human skeletal myotubes): enhanced by SBI-477 treatment in a dose dependent manner
Phosphorylation of Akt (Akt): also increased
